Patent US20260373226A1, “METHODS AND COMPOSITIONS FOR THE TREATMENT OF NEURODEGENERATIVE DISEASE” (Stealth BioTherapeutics Inc., priority 2022, published 2026)
“Also recorded” adds a separate entry of the source.

What was measured:
[1] = Steady state PK in plasma, CSF, brain cortex after 10 daily s.c. doses in nonhuman primates; type: in vivo, cynomolgus monkey
Method: Pharmacokinetic profile of SBT-272 in nonhuman primate plasma, CSF, and brain. The objective of this study was to determine the pharmacokinetic profile of SBT-272 in CSF and plasma when delivered by subcutaneous (SC) injection for 10 days to cynomolgus monkeys. SBT-272 solution was administered daily by SC injection for 10 days. The following parameters and endpoints were evaluated in this study: mortality, clinical observations, body weights, pharmacokinetic samples (CSF and plasma), and selected tissue collection. There was no mortality during the study. […] Additional details regarding the experimental protocol are provided below.
Test System. Details Regarding the Test System are Provided Below: • Species: Nonhuman primate • Strain/Breed: Cynomolgus monkey • Animal Condition: Non-naïve • Animal Procurement Method: In-house colony • Animal Supplier: Charles River Laboratories • Animal Supplier Location: 531 Boul des Prairies, Laval, QC H7V 1B7, Canada • Animal Origin: Asia • Number of Males: 3 • Age at the Initiation of Dosing: 18 to 60 months • Weight at the Initiation of Dosing: 1.4 to 5.0 kg
Study design. The study design is described in Table 9.
• Route of Administration: Subcutaneous injection into the scapular and mid-dorsal areas • Treatment Frequency: Daily • Treatment Duration: 10 days • Method: The first day of dosing is designated as Day 1. Dose formulations are allowed to warm up at ambient temperature for at least 30 minutes prior to dosing, as appropriate. The animals are temporarily restrained for dose administration and are not be sedated. The volume for each dose is administered over 1 (preferred) or 2 (as necessary) separate injections within the designated area. Injection sites are rotated daily (see FIG. 4B). If a designated subcutaneous test site is not available for a given animal on any day, then the next available test site in the rotation should be used for dosing. The injection area is marked as frequently as required to allow appropriate visualization of administration sites. Hair may be clipped or shaved if required to improve visualization of the injection sites. On the last injection occasion for each quadrant, the last site of injection is circled, and the circled site is collected at necropsy.
CSF Sample Processing. CSF samples re processed and stored within 1 hour of collection. Following each CSF collection, the sample is visually inspected, and the appearance is recorded. Samples are maintained on wet ice prior to and after centrifugation. Samples are centrifuged for 5 minutes in a refrigerated centrifuge (set to maintain 4 °C) at 2000 g RCF within 1 hour of collection. The resultant supernatant is collected within 30 minutes (as quickly as possible) of centrifugation and will be visually inspected; the appearance of the supernatant and any traces of blood in the pellet re recorded. Precipitate (if any) is discarded. CSF samples are separated into 2 approximately 100 μL equal aliquots into uniquely labelled low protein binding polypropylene tubes each containing 10 μL of 5% (v/v) phosphoric acid aqueous solution. Any remaining CSF will be transferred into a 3rd low protein binding polypropylene tube containing a volume of 5% (v/v) phosphoric acid solution adjusted to result in a 1:10 ratio of acid solution: CSF. All samples are placed on dry ice and transferred to a freezer set to maintain −70 °C.
Plasma Sample Processing. […]

[2] = SBT-272 level in brain homogenates after ET-1 injection; type: in vivo; conditions: rat hemibrain, 24 hours after final treatment
Excerpt: FIG. 2B is a schematic showing the experimental design. Dotted lines indicate left and right subsection of hemibrain used for RCR and PK analysis (FIG. 2B). FIG. 2C: individual respiratory control ratios (RCR) per animal (n=8 per group) from the stroke-induced subsection of the right hemisphere. FIG. 2D: SBT-272 level in the brain homogenates from the same hemisphere after ET-1 injection. ET1=endothelin-1, vasoconstrictive peptide (*P<0.05, Kruskal-Wallis followed by Dunn's test).
Improved respiratory control ratio after cerebral ischemia reperfusion. To assess its pharmacodynamic effect on mitochondrial function in the brain, SBT-272 was tested in a rat model of acute ischemia. The mitochondrial effects of SBT-272 were determined using the respiratory control ratio (RCR), the ratio of coupled respiration (supporting oxidative phosphorylation) to respiratory rate in the absence of ADP (“leak” respiration). The high mitochondrial RCR in sham-treated animals (9.0±0.1) confirmed that the mitochondrial were healthy, as the majority of respiration accounted for replenishing cellular ATP levels (FIG. 2C).

[3] = Phase 1 clinical safety and tolerability in healthy volunteers; type: in vivo, human; conditions: Phase 1, healthy volunteers, SC; interim data analysis
Excerpt: The primary objective of this study is to evaluate the safety and tolerability of single and multiple ascending doses of SBT-272 administered via subcutaneous injection in healthy volunteers. The secondary objects of this study are to: (a) evaluate the plasma PK of SBT-272 in healthy volunteers following subcutaneous administration of single and multiple ascending doses; and (b) to determine an appropriate dose range for subsequence clinical evaluation.

Compound: Cc1cc(O)cc(C)c1C[C@H](NC(=O)[C@H](N)CCCNC(=N)N)C(=O)N[C@@H](CCCCN)c1nc(Cc2ccccc2)no1 [SBT-272, (R)-2-amino-N—((S)-1-(((S)-5-amino-1-(3-benzyl-1,2,4-oxadiazol-5-yl)pentyl)amino)-3-(4-hydroxy-2,6-dimethylphenyl)-1-oxopropan-2-yl)-5-guanidinopentanamide]
- plasma:CSF ratio ([1]; cynomolgus monkey, 5 mg/kg s.c., 10 daily doses): 6.40
- brain:CSF ratio ([1]; cynomolgus monkey, brain (cortex), 5 mg/kg s.c., 10 daily doses): 328
- Kp ([1]; in vivo, sc, cynomolgus monkey, brain (cortex), 5 mg/kg s.c., 10 daily doses, read-out: brain:plasma ratio): 51
- brain drug concentration versus predictions based on rodent studies ([1]; nonhuman primate, FIGS. 5A-5B): met predictions based on rodent studies
- correlation between species in steady state brain concentration at trough ([1]; rat and nonhuman primate, repeated SC dosing): excellent correlation between species in steady state brain concentration at trough
- brain concentration, dose relation [2]: dose proportional
- safety profile [3]: consistent safety profile; also recorded: generally safe
